According to patent publication US12344597B2, “Alkoxy-substituted pyridinyl derivatives as LPA1 receptor antagonists and their use in the treatment of fibrosis” (IDORSIA PHARMACEUTICALS LTD, priority 2018, dated 2025):

molecular target: human LPA1 receptor (Homo sapiens (Human), UniProt Q92633); experiment: Beta-arrestin recruitment assay to determine IC50 values for human LPAR1; assay type: cell-based; settings: antagonist mode, Tango EDG2-bla U2OS cells, LPA 18:1 500 nM final
How it was run: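 Antagonist IC50 = concentration giving 50% inhibition of maximal LPA response. Read-out is beta-lactamase reporter activity after arrestin-protease recruitment in U2OS cells bearing LPA1-TEV-Gal4-VP16 construct; cells pre-incubated 20 h, 37 °C, 5% CO2.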

Chain of human LPA1 receptor (Q92633 whole entry, the tested form may be a part): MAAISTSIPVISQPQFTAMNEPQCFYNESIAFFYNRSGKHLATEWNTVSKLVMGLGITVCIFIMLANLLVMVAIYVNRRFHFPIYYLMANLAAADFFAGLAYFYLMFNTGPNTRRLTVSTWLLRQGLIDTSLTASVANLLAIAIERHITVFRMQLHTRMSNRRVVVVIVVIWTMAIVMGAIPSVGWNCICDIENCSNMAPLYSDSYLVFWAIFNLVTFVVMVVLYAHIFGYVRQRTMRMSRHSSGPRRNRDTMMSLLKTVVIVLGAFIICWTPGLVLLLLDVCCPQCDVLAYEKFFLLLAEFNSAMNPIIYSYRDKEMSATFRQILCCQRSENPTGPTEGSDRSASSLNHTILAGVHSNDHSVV

SMILES | IC50 [nM]
Cc1ccc(NC(=O)C2(c3ccccc3C(C)C)CN(C(=O)Cn3nccn3)C2)c(OC(F)F)n1 [Ex 12-21, 1-(2-(2H-1,2,3-triazol-2-yl)acetyl)-N-(2-(difluoromethoxy)-6-methylpyridin-3-yl)-3-(2-isopropylphenyl)azetidine-3-carboxamide] | 5.6
Cc1ccc(NC(=O)C2(c3cc(F)ccc3C(C)C)CNC2)c(OC(F)F)n1 [Ex 37, N-(2-(difluoromethoxy)-6-methylpyridin-3-yl)-3-(5-fluoro-2-isopropylphenyl)azetidine-3-carboxamide] | 112
CCCN(CC(=O)O)CC(=O)N1CC(C(=O)Nc2ccc(C)nc2OC(F)F)(c2ccccc2C(C)C)C1 [Ex 42, N-(2-(3-((2-(difluoromethoxy)-6-methylpyridin-3-yl)carbamoyl)-3-(2-isopropylphenyl)azetidin-1-yl)-2-oxoethyl)-N-propylglycine] | 7
Cc1ccc(NC(=O)C2(c3ccccc3C3CCCCC3)CNC2)c(OC(F)F)n1 [Ex 27, 3-(2-cyclohexylphenyl)-N-(2-(difluoromethoxy)-6-methylpyridin-3-yl)azetidine-3-carboxamide] | 13
Cc1ccc(NC(=O)C2(c3ccccc3C(C)C)CCNC2)c(OC(F)F)n1 (stereo not shown) [Ex 10, N-(2-(difluoromethoxy)-6-methylpyridin-3-yl)-3-(2-isopropylphenyl)pyrrolidine-3-carboxamide] | 7
COC(CC(=O)O)S(=O)(=O)N1CC(C(=O)Nc2ccc(C)nc2OC(F)F)(c2ccccc2C(C)C)C1 (stereo not shown) [Ex 13-27, 3-((3-((2-(difluoromethoxy)-6-methylpyridin-3-yl)carbamoyl)-3-(2-isopropylphenyl)azetidin-1-yl)sulfonyl)-3-methoxypropanoic acid] | 28
Cc1ccc(NC(=O)C2(c3ccccc3C(C)C)CN(CCN(C)CC(=O)O)C2)c(OC(F)F)n1 [Ex 11-82, N-(2-(3-((2-(difluoromethoxy)-6-methylpyridin-3-yl)carbamoyl)-3-(2-isopropylphenyl)azetidin-1-yl)ethyl)-N-methylglycine] | 193
COC(=O)C1(CN2CC(C(=O)Nc3ccc(C)nc3OC(F)F)(c3ccccc3C(C)C)C2)COC1 [Ex 11-90, methyl 3-((3-((2-(difluoromethoxy)-6-methylpyridin-3-yl)carbamoyl)-3-(2-isopropylphenyl)azetidin-1-yl)methyl)oxetane-3-carboxylate] | 45
COC(=O)C(C)(C)COC(=O)N1CC(C(=O)Nc2ccc(C)nc2OC(F)F)(c2ccccc2C(C)C)C1 [Ex 14-9, 3-methoxy-2,2-dimethyl-3-oxopropyl 3-((2-(difluoromethoxy)-6-methylpyridin-3-yl)carbamoyl)-3-(2-isopropylphenyl)azetidine-1-carboxylate] | 42
CCOC(=O)C(F)(F)CC(=O)N1CC(C(=O)Nc2ccc(C)nc2OC(F)F)(c2ccccc2C(C)C)C1 [Ex 12-111, ethyl 4-(3-((2-(difluoromethoxy)-6-methylpyridin-3-yl)carbamoyl)-3-(2-isopropylphenyl)azetidin-1-yl)-2,2-difluoro-4-oxobutanoate] | 18
Cc1ccc(NC(=O)C2(c3ccccc3C(C)C)CN(C(=O)CNC(C)(C)CC(=O)O)C2)c(OC(F)F)n1 [Ex 47, 3-((2-(3-((2-(difluoromethoxy)-6-methylpyridin-3-yl)carbamoyl)-3-(2-isopropylphenyl)azetidin-1-yl)-2-oxoethyl)amino)-3-methylbutanoic acid] | 95
Cc1ccc(NC(=O)C2(c3ccccc3C(C)C)CN(CCCC(C)(C)C#N)C2)c(OC(F)F)n1 [Ex 11-60, 1-(4-cyano-4-methylpentyl)-N-(2-(difluoromethoxy)-6-methylpyridin-3-yl)-3-(2-isopropylphenyl)azetidine-3-carboxamide] | 47
COCCNCC(=O)N1CCC(C(=O)Nc2ccc(C)nc2OC(F)F)(c2ccccc2C(C)C)CC1 [Ex 12-48, N-(2-(difluoromethoxy)-6-methylpyridin-3-yl)-4-(2-isopropylphenyl)-1-((2-methoxyethyl)glycyl)piperidine-4-carboxamide] | 9
Cc1ccc(NC(=O)C2(c3ccccc3C(C)C)CN(C(=O)CN(CC(=O)O)C3CC3)C2)c(OC(F)F)n1 [Ex 43, N-cyclopropyl-N-(2-(3-((2-(difluoromethoxy)-6-methylpyridin-3-yl)carbamoyl)-3-(2-isopropylphenyl)azetidin-1-yl)-2-oxoethyl)glycine] | 14
Cc1ccc(NC(=O)C2(c3ccccc3C(C)C)CN(CCN(C)C)C2)c(OC(F)F)n1 [Ex 11-78, N-(2-(difluoromethoxy)-6-methylpyridin-3-yl)-1-(2-(dimethylamino)ethyl)-3-(2-isopropylphenyl)azetidine-3-carboxamide] | 191
Cc1ccc(NC(=O)C2(c3ccccc3C(C)C)CN(c3nnn[nH]3)C2)c(OC(F)F)n1 [Ex 20, N-(2-(difluoromethoxy)-6-methylpyridin-3-yl)-3-(2-isopropylphenyl)-1-(1H-tetrazol-5-yl)azetidine-3-carboxamide] | 37
Cc1ccc(NC(=O)C2(c3ccccc3C(C)C)CN(C(=O)C3C4CC3(C(=O)O)C4)C2)c(OC(F)F)n1 (stereo not shown) [Ex 12-108, 2-(3-((2-(difluoromethoxy)-6-methylpyridin-3-yl)carbamoyl)-3-(2-isopropylphenyl)azetidine-1-carbonyl)bicyclo[1.1.1]pentane-1-carboxylic acid] | 28
COC(=O)C(C)(C)CCN1CC(C(=O)Nc2ncc(Cl)cc2OC(F)F)(c2ccccc2C(C)C)C1 [Ex 78-1, methyl 4-(3-((5-chloro-3-(difluoromethoxy)pyridin-2-yl)carbamoyl)-3-(2-isopropylphenyl)azetidin-1-yl)-2,2-dimethylbutanoate] | 457
Cc1ccc(NC(=O)C2(c3ccccc3C(C)C)CN(C(=O)CN[C@H](C)CO)C2)c(OC(F)F)n1 [Ex 12-58, (R)-N-(2-(difluoromethoxy)-6-methylpyridin-3-yl)-1-((R)-(1-hydroxypropan-2-yl)glycyl)-3-(2-isopropylphenyl)azetidine-3-carboxamide] | 10
Cc1ccc(NC(=O)C2(c3ccccc3C(C)C)CN(CCCC(C)(C)N)C2)c(OC(F)F)n1 [Ex 11-94, 1-(4-amino-4-methylpentyl)-N-(2-(difluoromethoxy)-6-methylpyridin-3-yl)-3-(2-isopropylphenyl)azetidine-3-carboxamide] | 64
Cc1ccc(NC(=O)C2(c3ccccc3C(C)C)CN(C(=O)CCNCCO)C2)c(OC(F)F)n1 [Ex 12-60, N-(2-(difluoromethoxy)-6-methylpyridin-3-yl)-1-(3-((2-hydroxyethyl)amino)propanoyl)-3-(2-isopropylphenyl)azetidine-3-carboxamide] | 58

system: LPA-induced skin vascular leakage; experiment: mouse LPA-induced skin vascular leakage model; assay type: in vivo; settings: mice, oral administration of 100 mg/kg, LPA-induced vascular leakage (Evans blue)
Experimental: Assessment of In Vivo Potency
The in vivo potency of the compounds of formulae (I), (II) and (III) can be determined using a mouse LPA-induced skin vascular leakage model. Female Balb/c mice are treated with either vehicle or test compound (p.o.) for at least 1 h prior to administration of the albumin marker Evans blue (50 mg/kg, i.v., 0.9% NaCl) and subsequent challenge with LPA (5 μg, i.d.). After 30 minutes, mice are sacrificed by CO2 inhalation. Discs of skin from the injection sites are removed, digested in formamide (500 μl, 37° C., 24 hrs) and the content of Evans blue quantified by colorimetric assay. Results are expressed as extravasated Evans blue per skin disc (μg/disc).
As an example, the compound of Ex 12-21 is able to effectively reduce LPA-induced vascular leakage after oral administration of 100 mg/kg to mice as compared to a group of animals treated with vehicle only. Reduction of vascular leakage compared to vehicle group was ≥60%.

SMILES | Reduction of vascular leakage compared to vehicle group [%]
Cc1ccc(NC(=O)C2(c3ccccc3C(C)C)CN(C(=O)Cn3nccn3)C2)c(OC(F)F)n1 [Ex 12-21, 1-(2-(2H-1,2,3-triazol-2-yl)acetyl)-N-(2-(difluoromethoxy)-6-methylpyridin-3-yl)-3-(2-isopropylphenyl)azetidine-3-carboxamide] | ≥ 60
